For 35 molecules, IC50 results are on record in US11427558B1, “Indazoles and azaindazoles as LRRK2 inhibitors” (ESCAPE Bio, Inc., priority 2019, dated 2022).

The target of assay [1] is Recombinant wild type LRRK2 protein (Homo sapiens (Human), UniProt Q5S007). The assay is described as follows: LRRK2 kinase activity, LanthaScreen TR-FRET assay (wild type). It is filed as biochemical. To be noted: LRRKtide 400 nM, 25 μM ATP, 60 min; read-out: LRRK2 WT IC50. The method in brief:
(§1)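 Recombinant human wild-type or G2019S LRRK2 phosphorylated fluorescein-labelled LRRKtide (ERM-based) with ATP and serially diluted compound for 60 min at room temperature.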

The target in assay [2] is Recombinant G2019S-LRRK2 protein (Homo sapiens (Human), UniProt Q5S007, G2019S). In words: LRRK2 kinase activity, LanthaScreen TR-FRET assay (G2019S). To be noted: LRRKtide 400 nM, 25 μM ATP, 60 min. It is filed as biochemical. The method in brief:
as §1
(In general: TR-FRET usually uses a lanthanide donor and a delayed reading to cut background.)

Chain of Recombinant G2019S-LRRK2 protein (Q5S007 whole entry G2019S): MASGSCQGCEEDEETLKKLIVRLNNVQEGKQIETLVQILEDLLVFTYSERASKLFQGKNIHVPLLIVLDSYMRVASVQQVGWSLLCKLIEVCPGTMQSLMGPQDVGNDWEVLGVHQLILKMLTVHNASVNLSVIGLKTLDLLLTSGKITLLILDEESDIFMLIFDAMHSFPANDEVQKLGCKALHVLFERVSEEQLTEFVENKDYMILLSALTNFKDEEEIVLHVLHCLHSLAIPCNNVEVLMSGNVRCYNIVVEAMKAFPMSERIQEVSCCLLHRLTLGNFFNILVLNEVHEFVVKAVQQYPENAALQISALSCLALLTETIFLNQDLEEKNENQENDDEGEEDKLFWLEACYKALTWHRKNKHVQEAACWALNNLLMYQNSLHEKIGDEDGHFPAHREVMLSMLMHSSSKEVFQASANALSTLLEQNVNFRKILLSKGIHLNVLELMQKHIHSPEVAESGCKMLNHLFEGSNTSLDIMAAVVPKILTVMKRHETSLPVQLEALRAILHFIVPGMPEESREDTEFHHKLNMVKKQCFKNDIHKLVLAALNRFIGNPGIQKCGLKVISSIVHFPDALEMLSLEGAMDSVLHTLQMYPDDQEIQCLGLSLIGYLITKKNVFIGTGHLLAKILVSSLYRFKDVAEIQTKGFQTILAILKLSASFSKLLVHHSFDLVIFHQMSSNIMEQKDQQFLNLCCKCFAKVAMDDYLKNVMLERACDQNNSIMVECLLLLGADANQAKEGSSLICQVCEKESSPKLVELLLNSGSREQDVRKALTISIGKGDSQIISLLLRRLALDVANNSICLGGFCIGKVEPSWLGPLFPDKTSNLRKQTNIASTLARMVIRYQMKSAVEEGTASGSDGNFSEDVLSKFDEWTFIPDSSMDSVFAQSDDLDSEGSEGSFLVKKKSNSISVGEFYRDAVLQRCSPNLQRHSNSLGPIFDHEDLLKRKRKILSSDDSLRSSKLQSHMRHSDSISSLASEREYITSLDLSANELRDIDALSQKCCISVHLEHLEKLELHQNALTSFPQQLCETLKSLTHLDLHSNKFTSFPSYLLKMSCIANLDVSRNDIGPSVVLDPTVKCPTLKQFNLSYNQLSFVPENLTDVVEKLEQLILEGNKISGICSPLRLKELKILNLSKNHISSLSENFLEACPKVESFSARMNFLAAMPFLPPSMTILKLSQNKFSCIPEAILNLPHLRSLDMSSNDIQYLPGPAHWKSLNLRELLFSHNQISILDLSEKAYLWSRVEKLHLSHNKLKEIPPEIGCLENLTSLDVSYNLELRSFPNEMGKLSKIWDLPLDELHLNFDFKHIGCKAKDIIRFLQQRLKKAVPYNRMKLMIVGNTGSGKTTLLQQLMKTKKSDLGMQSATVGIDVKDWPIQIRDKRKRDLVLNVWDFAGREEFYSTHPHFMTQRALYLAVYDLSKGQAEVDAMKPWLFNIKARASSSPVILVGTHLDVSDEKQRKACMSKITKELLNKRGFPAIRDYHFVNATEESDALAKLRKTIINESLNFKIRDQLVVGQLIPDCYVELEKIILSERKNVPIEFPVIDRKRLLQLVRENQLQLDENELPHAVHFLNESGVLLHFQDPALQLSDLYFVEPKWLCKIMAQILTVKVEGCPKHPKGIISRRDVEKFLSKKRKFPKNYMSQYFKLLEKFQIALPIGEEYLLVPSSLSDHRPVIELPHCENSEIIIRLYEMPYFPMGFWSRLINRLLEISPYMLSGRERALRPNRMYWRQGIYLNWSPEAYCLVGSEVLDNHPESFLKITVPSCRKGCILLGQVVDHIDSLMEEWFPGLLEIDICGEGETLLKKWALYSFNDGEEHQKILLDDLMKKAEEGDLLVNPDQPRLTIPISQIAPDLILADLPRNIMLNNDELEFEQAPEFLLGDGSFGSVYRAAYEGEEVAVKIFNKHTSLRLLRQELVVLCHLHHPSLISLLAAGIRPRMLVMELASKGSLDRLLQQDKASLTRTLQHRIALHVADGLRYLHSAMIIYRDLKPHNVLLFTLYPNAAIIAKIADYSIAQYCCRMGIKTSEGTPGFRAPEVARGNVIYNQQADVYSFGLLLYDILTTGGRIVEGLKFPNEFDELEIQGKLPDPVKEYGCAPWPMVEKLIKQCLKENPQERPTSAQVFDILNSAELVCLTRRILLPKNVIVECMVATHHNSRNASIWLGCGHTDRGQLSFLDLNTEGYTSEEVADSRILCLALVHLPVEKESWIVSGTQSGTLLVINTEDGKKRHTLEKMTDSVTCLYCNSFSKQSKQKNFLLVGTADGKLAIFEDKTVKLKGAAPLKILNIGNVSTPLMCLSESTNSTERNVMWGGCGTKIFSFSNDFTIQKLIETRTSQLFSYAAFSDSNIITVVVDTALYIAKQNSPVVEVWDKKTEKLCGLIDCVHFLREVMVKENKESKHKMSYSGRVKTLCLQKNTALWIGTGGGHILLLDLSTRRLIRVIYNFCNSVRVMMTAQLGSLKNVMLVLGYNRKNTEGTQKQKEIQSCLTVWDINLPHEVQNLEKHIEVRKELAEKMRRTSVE
Chain of Recombinant wild type LRRK2 protein (Q5S007 whole entry): as the sequence (Q5S007 whole entry G2019S) above, with S2019G counted along it

Broadly, the IC50 is the midpoint of a concentration-inhibition curve. As to `Cc1c(C(=O)Nc2ccc3[nH]nc(-c4cnco4)c3c2)ncc(C#N)c1C(F)(F)F` [Example 289, 5-Cyano-3-methyl-N-(3-(oxazol-5-yl)-1H-indazol-5-yl)-4-(trifluoromethyl)picolinamide], the IC50 in assay [1] and in assay [2] was under 100 nM throughout.

Turning to “4-Cyano-N-(3-(1-(difluoromethyl)-1H-pyrazol-3-yl)-1H-indazol-5-yl)-2-fluoro-6-methylbenzamide [Example 165]”, the concentration for half-maximal inhibition (IC50) in assay [1] and in assay [2] was under 100 nM throughout.

For the molecule `Cc1c(C#N)cn(C)c1C(=O)Nc1ccc2[nH]nc(-c3cnoc3)c2c1` [Example 246, 4-Cyano-N-(3-(isoxazol-4-yl)-1H-indazol-5-yl)-1,3-dimethyl-1H-pyrrole-2-carboxamide], the half-maximal inhibitory concentration (IC50) in assay [1] and in assay [2] was under 100 nM each time.

As to `Cc1cc(C#N)cnc1C(=O)Nc1ccc2[nH]nc(-c3ccccn3)c2c1` [Example 114, 5-Cyano-3-methyl-N-(3-(pyridin-2-yl)-1H-indazol-5-yl)picolinamide], the IC50 in assay [1] lay in the range of 1000 to 10000 nM; in assay [2], 100 to 1000 nM.

Regarding `Cc1c(C#N)cnc(C(=O)Nc2ccc3[nH]nc(C=C4CCNCC4)c3c2)c1C` [Example 260, 5-Cyano-3,4-dimethyl-N-(3-(piperidin-4-ylidenemethyl)-1H-indazol-5-yl)picolinamide], the 50% inhibitory concentration (IC50) was over 10000 nM in assay [1] and 1000 to 10000 nM in assay [2].

Regarding `Cc1c(C#N)cnc(C(=O)Nc2ccc3[nH]nc(-c4cccn(C)c4=O)c3c2)c1C` [Example 280, 5-Cyano-3,4-dimethyl-N-(3-(1-methyl-2-oxo-1,2-dihydropyridin-3-yl)-1H-indazol-5-yl)picolinamide], the IC50 in assay [1] and in assay [2] was 1000 to 10000 nM throughout.

For the molecule “2-Chloro-3-cyano-N-(3-(1-(difluoromethyl)-1H-pyrazol-3-yl)-1H-indazol-5-yl)benzamide [Example 166]”, the IC50 in assay [1] and in assay [2] was under 100 nM in each case.

Consider `Cc1cc(C#N)cnc1C(=O)Nc1ccc2[nH]nc(-c3ccc(C(=O)N4CCOCC4)cc3)c2c1` [Example 108, 5-Cyano-3-methyl-N-(3-(4-(morpholine-4-carbonyl)phenyl)-1H-indazol-5-yl)picolinamide], for which the IC50 in assay [1] was 100 to 1000 nM; in assay [2], under 100 nM.

Regarding `COc1ccc(-c2n[nH]c3ccc(NC(=O)c4ncc(C#N)cc4C)cc23)cc1` [Example 47, 5-Cyano-N-(3-(4-methoxyphenyl)-1H-indazol-5-yl)-3-methylpicolinamide], the figures for the IC50 in assay [1] and in assay [2] were 100 to 1000 nM and under 100 nM, respectively.

For `COc1c(C#N)cnc(C(=O)Nc2ccc3[nH]nc(-c4cnoc4)c3c2)c1C` [Example 226, 5-Cyano-N-(3-(isoxazol-4-yl)-1H-indazol-5-yl)-4-methoxy-3-methylpicolinamide], the 50% inhibitory concentration (IC50) in assay [1] and in assay [2] was under 100 nM each time.

For the molecule `Cc1cc(C#N)cnc1C(=O)Nc1ccc2[nH]nc(-c3cccc(N4C[C@@H](C)O[C@@H](C)C4)c3)c2c1` [Example 119, 5-Cyano-N-(3-(3-((2S,6R)-2,6-dimethylmorpholino)phenyl)-1H-indazol-5-yl)-3-methylpicolinamide], the IC50 in assay [1] is 100 to 1000 nM; in assay [2], under 100 nM.

Consider `CCc1n[nH]c2ccc(NC(=O)c3ncc(C#N)c(C(F)(F)F)c3C)cc12` [Example 284, 5-Cyano-N-(3-ethyl-1H-indazol-5-yl)-3-methyl-4-(trifluoromethyl)picolinamide], for which the concentration for half-maximal inhibition (IC50) in assay [1] was 1000 to 10000 nM; in assay [2], under 100 nM.

As for `N#Cc1cccc(C(=O)Nc2ccc3[nH]nc(-c4ccoc4)c3c2)c1Br` [Example 89, 2-bromo-3-cyano-N-(3-(furan-3-yl)-1H-indazol-5-yl)benzamide], the IC50 in assay [1] and in assay [2] was under 100 nM in each case.

Turning to `Cc1cc(C#N)cnc1C(=O)Nc1ccc2[nH]nc(-c3ccccc3)c2c1` [Example 40, 5-Cyano-3-methyl-N-(3-phenyl-1H-indazol-5-yl)picolinamide], the concentration for half-maximal inhibition (IC50) in assay [1] was 100 to 1000 nM; in assay [2], under 100 nM.

Take `N#Cc1cnc(C(=O)Nc2ccc3[nH]nc(-c4ccoc4)c3c2)c2sccc12` [Example 116, 4-Cyano-N-(3-(furan-3-yl)-1H-indazol-5-yl)thieno[2,3-c]pyridine-7-carboxamide]: the values for the IC50 in assay [1] and in assay [2] were 1000 to 10000 nM and 100 to 1000 nM, respectively.

Take `Cc1ccccc1-c1n[nH]c2ccc(NC(=O)c3ncc(C#N)cc3C)cc12` [Example 98, 5-Cyano-3-methyl-N-(3-(o-tolyl)-1H-indazol-5-yl)picolinamide]: the IC50 in assay [1] was over 10000 nM; in assay [2] it was 1000 to 10000 nM.

With `N#Cc1cnc(C(=O)Nc2ccc3[nH]nc(-c4ccoc4)c3c2)c(Cl)c1` [Example 95, 3-chloro-5-cyano-N-(3-(furan-3-yl)-1H-indazol-5-yl)picolinamide], the IC50 in assay [1] and in assay [2] was under 100 nM in each case.

Consider `Cc1c(C#N)cnc(C(=O)Nc2ccc3[nH]nc(/C=C/c4ccncc4)c3c2)c1C` [Example 281, (E)-5-Cyano-3,4-dimethyl-N-(3-(2-(pyridin-4-yl)vinyl)-1H-indazol-5-yl)picolinamide], for which the IC50 in assay [1] and in assay [2] was under 100 nM in each case.

On to `COc1cc(C#N)ccc1C(=O)Nc1ccc2[nH]nc(-c3cnn(C(F)F)c3)c2c1` [Example 189, 4-Cyano-N-(3-(1-(difluoromethyl)-1H-pyrazol-4-yl)-1H-indazol-5-yl)-2-methoxybenzamide], for which the IC50 in assay [1] and in assay [2] was under 100 nM each time.

Take `Cc1c(C(=O)Nc2ccc3[nH]nc(-c4ccoc4)c3c2)n[nH]c1C#N` [Example 133, 5-Cyano-N-(3-(furan-3-yl)-1H-indazol-5-yl)-4-methyl-1H-pyrazole-3-carboxamide]: the IC50 in assay [1] is 100 to 1000 nM; in assay [2] it was under 100 nM.

Take `Cc1c(C(=O)Nc2ccc3[nH]nc(C(F)F)c3c2)nc(Cl)c(C#N)c1C` [Example 291, 6-Chloro-5-cyano-N-(3-(difluoromethyl)-1H-indazol-5-yl)-3,4-dimethylpicolinamide]: the half-maximal inhibitory concentration (IC50) in assay [1] and in assay [2] was under 100 nM throughout.

Turning to `N#Cc1cc(C(=O)Nc2ccc3[nH]nc(-c4ccoc4)c3c2)ns1` [Example 91, 5-Cyano-N-(3-(furan-3-yl)-1H-indazol-5-yl)isothiazole-3-carboxamide], the IC50 in assay [1] and in assay [2] was under 100 nM each time.

Turning to `Cc1cc(C#N)cnc1C(=O)Nc1ccc2[nH]nc(-c3cccc(N(C)C)c3)c2c1` [Example 30, 5-Cyano-N-(3-(3-(dimethylamino)phenyl)-1H-indazol-5-yl)-3-methylpicolinamide], the results for the concentration for half-maximal inhibition (IC50) in assay [1] and in assay [2] were 100 to 1000 nM and under 100 nM, respectively.

`N#Cc1ccnc(C(=O)Nc2ccc3[nH]nc(-c4ccncc4)c3c2)c1` [Example 23, 4-Cyano-N-(3-(pyridin-4-yl)-1H-indazol-5-yl)picolinamide]: the results for the concentration for half-maximal inhibition (IC50) in assay [1] and in assay [2] were 100 to 1000 nM and under 100 nM, respectively.

For `N#Cc1ccc(C(=O)Nc2ccc3[nH]nc(-c4ccoc4)c3c2)cc1` [Example 11, 4-Cyano-N-(3-(furan-3-yl)-1H-indazol-5-yl)benzamide], the values for the concentration for half-maximal inhibition (IC50) in assay [1] and in assay [2] were 100 to 1000 nM and under 100 nM, respectively.

Take `N#Cc1ncc(C(=O)Nc2ccc3[nH]nc(-c4ccncc4)c3c2)cn1` [Example 25, 2-Cyano-N-(3-(pyridin-4-yl)-1H-indazol-5-yl)pyrimidine-5-carboxamide]: the IC50 in assay [1] and in assay [2] was 100 to 1000 nM throughout.

As for `Cc1c(C#N)cnc(C(=O)Nc2ccc3[nH]nc(C4CC4)c3c2)c1C` [Example 223, 5-Cyano-N-(3-cyclopropyl-1H-indazol-5-yl)-3,4-dimethylpicolinamide], the IC50 in assay [1] is 1000 to 10000 nM; in assay [2], under 100 nM.

For `Cc1cc(C#N)cnc1C(=O)Nc1ccc2[nH]nc(-c3cccnc3)c2c1` [Example 50, 5-Cyano-3-methyl-N-(3-(pyridin-3-yl)-1H-indazol-5-yl)picolinamide], the IC50 is 100 to 1000 nM in assay [1] and under 100 nM in assay [2].

For `Cc1cc(C#N)cnc1C(=O)Nc1ncc2[nH]nc(-c3ccoc3)c2n1` [Example 161, 5-Cyano-N-(3-(furan-3-yl)-1H-pyrazolo[4,3-d]pyrimidin-5-yl)-3-methylpicolinamide], the figures for the IC50 in assay [1] and in assay [2] were 1000 to 10000 nM and 100 to 1000 nM, respectively.

Take `Cc1cc(C#N)cnc1C(=O)Nc1ccc2[nH]nc(-c3ccsc3)c2c1` [Example 73, 5-Cyano-3-methyl-N-(3-(thiophen-3-yl)-1H-indazol-5-yl)picolinamide]: the IC50 in assay [1] was 100 to 1000 nM; in assay [2], under 100 nM.

On to `N#Cc1ccnc(C(=O)Nc2ccc3[nH]nc(-c4ccoc4)c3c2)c1Cl` [Example 144, 3-Chloro-4-cyano-N-(3-(furan-3-yl)-1H-indazol-5-yl)picolinamide], for which the IC50 in assay [1] and in assay [2] was under 100 nM in each case.

Regarding `Cc1c(C#N)cnc(C(=O)Nc2ccc3[nH]nc(-c4cnn(C5CCN(C)CC5)c4)c3c2)c1C` [Example 215, 5-Cyano-3,4-dimethyl-N-(3-(1-(1-methylpiperidin-4-yl)-1H-pyrazol-4-yl)-1H-indazol-5-yl)picolinamide], the IC50 in assay [1] and in assay [2] was under 100 nM in each case.

Regarding `Cc1nc(C#N)ccc1C(=O)Nc1ccc2[nH]nc(-c3ccoc3)c2c1` [Example 8, 6-Cyano-N-(3-(furan-3-yl)-1H-indazol-5-yl)-2-methylnicotinamide], the 50% inhibitory concentration (IC50) was 100 to 1000 nM in assay [1] and under 100 nM in assay [2].

On to `CCc1nc(C(=O)Nc2ccc3[nH]nc(C4CC4)c3c2)c(C)c(C)c1C#N` [Example 333, 5-Cyano-N-(3-cyclopropyl-1H-indazol-5-yl)-6-ethyl-3,4-dimethylpicolinamide], for which the IC50 in assay [1] is 100 to 1000 nM; in assay [2], under 100 nM.

Take `Cc1cc(C#N)cnc1C(=O)Nc1ccc2[nH]nc(-c3cccc(C4CC4)c3)c2c1` [Example 62, 5-cyano-N-(3-(3-cyclopropylphenyl)-1H-indazol-5-yl)-3-methylpicolinamide]: the IC50 is 100 to 1000 nM in assay [1] and under 100 nM in assay [2].
